Results taken from US20080233151A1, “Use of non-antibacterial tetracycline analogs and formulations thereof for the treatment of bacterial exotoxins” (priority 2002, published 2008).

Test system: bacteria
Experiment: Non-antimicrobial dose and plasma antimicrobial threshold of antibacterial tetracyclines
Procedure: For example, tetracycline compounds that have significant antibacterial activity may be administered in an amount which is 10-80% of the antibacterial amount. More preferably, the antibacterial tetracycline compound is administered in an amount which is 40-70% of the antibacterial amount.
Examples of antibacterial tetracyclines administered in a non-antibacterial amount are depicted in Table 1, as follows: […]

C[C@H]1c2cccc(O)c2C(=O)C2=C(O)[C@]3(O)C(=O)C(C(N)=O)=C(O)[C@@H](N(C)C)[C@@H]3[C@@H](O)[C@@H]21 [Doxycycline]
Plasma Antimicrobial Threshold Level: 1.0 µg/mL
Maximum Non-Antimicrobial Dose (twice daily): 20 mg b.i.d

CN(C)c1ccc(O)c2c1C[C@H]1C[C@H]3[C@H](N(C)C)C(O)=C(C(N)=O)C(=O)[C@@]3(O)C(O)=C1C2=O [Minocycline]
Maximum Non-Antimicrobial Dose (once daily): 38 mg q.d.
Plasma Antimicrobial Threshold Level: 0.8 µg/mL

CN(C)[C@@H]1C(O)=C(C(N)=O)C(=O)[C@@]2(O)C(O)=C3C(=O)c4c(O)cccc4[C@@](C)(O)[C@H]3C[C@@H]12 [Tetracycline]
Maximum Non-Antimicrobial Dose (once daily): 60 mg q.d.
Plasma Antimicrobial Threshold Level: 0.5 µg/mL
